Measurements taken from patent publication US10005818B2, “Derivative peptide compounds and methods of use” (REALTA HOLDINGS, LLC, priority 2010, dated 2018).
Square brackets hold non-standard residues; d marks the D form. Peptide text beside a SMILES is read from it. Sar = CNCC(=O)O

Experiments:
[1] = Solubility in water; format: physicochemical
[2] = system: complement activation in factor B-depleted human sera; format: biochemical
Experimental: Peptides were diluted to 0.77 mM in factor B-depleted human sera (Complement Technologies, Inc.) and incubated for 1 hour at 37° C. These peptides were then diluted with GVBS^++ to equal 2.5/s serum, of which 0.25 ml was combined with 0.4 ml of GVBS^++ and 0.1 ml of sensitized sheep red blood cells (RBCs) and again incubated for 1 hour at 37° C. The procedure was stopped by the addition of 4.0 ml of GVBS^−−, centrifuged for 5 minutes at 1,620×g, and the absorbance of the supernatants was read at 412 nm in a spectrophotometer. The percent lysis of each sample was standardized to that of the serum only control.
The final concentration of peptide in factor B-depleted serum was 0.77 mM. Each peptide was evaluated in triplicate and the mean values are reported. […] In the hemolytic assay, soluble peptides are standardized to water and insoluble peptides standardized to DMSO.
Polar Assortant peptides were serially diluted in undiluted factor B-depleted human sera (Complement Technologies, Inc.) and incubated for 1 hour at 37° C. Water, GVBS^++ and DMSO were included as controls. These peptides were then diluted with GVBS^++ to equal 2.5/s serum, of which 0.25 ml was combined with 0.4 ml of GVBS^++ and 0.1 ml of sensitized sheep red blood cells (RBCs) and again incubated for 1 hour at 37° C. The procedure was stopped by the addition of 4.0 ml of GVBS^−−, centrifuged for 5 minutes at 1,620×g, and the absorbance of the supernatants was read at 412 nm in a spectrophotometer. The percent lysis of each sample was standardized to that of the serum only control.
The final concentration of peptide in factor B-depleted serum was 0.77 mM. […] In the hemolytic assay, soluble peptides were standardized to water and insoluble peptides standardized to DMSO.
The final concentration of peptide in factor B-depleted serum was 0.77 mM. […] In the hemolytic assay, soluble peptides are standardized to water and insoluble peptides standardized to DMSO.

[3] = Table 5, sarcosine substitution peptides
[4] = Table 7, PEGylated and sarcosine/alanine substitution peptides

Row | Compound | Solubility in water [1, 3] | Hemolysis (%) [2] | Solubility in water [1, 4] | solubility in water / aqueous solutions [1]
1 | CC[C@H](C)[C@H](N)C(=O)N[C@@H](C)C(=O)N[C@@H](CC(C)C)C(=O)N[C@H](C(=O)N[C@@H](CC(C)C)C(=O)N[C@@H](CCC(=O)O)C(=O)N1CCC[C@H]1C(=O)N[C@H](C(=O)N[C@@H](CS)C(=O)N[C@@H](CS)C(=O)N[C@@H](CCC(N)=O)C(=O)N[C@@H](CCC(=O)O)C(=O)N[C@@H](CCCNC(=N)N)C(=O)N[C@@H](C)C(=O)N(C)CC(=O)O)[C@@H](C)CC)[C@@H](C)CC [PA-A15Sar] | No | 21.68% |  | 
2 | CC[C@H](C)[C@H](N)C(=O)N[C@@H](C)C(=O)N[C@@H](CC(C)C)C(=O)N[C@H](C(=O)N[C@@H](CC(C)C)C(=O)N[C@@H](CCC(=O)O)C(=O)N1CCC[C@H]1C(=O)N[C@H](C(=O)N(C)CC(=O)N[C@@H](C)C(=O)N[C@@H](CCC(N)=O)C(=O)N[C@@H](CCC(=O)O)C(=O)N[C@@H](CCCNC(=N)N)C(=O)N[C@@H](C)C(=O)N[C@@H](C)C(=O)O)[C@@H](C)CC)[C@@H](C)CC [PA-C9SarC10A] (H-IALILEPI[Sar]AQERAA-OH) |  | 99.37% | Yes | 
3 | CC[C@H](C)[C@H](N)C(=O)N[C@@H](C)C(=O)N[C@@H](CC(C)C)C(=O)N[C@H](C(=O)N[C@@H](CC(C)C)C(=O)N[C@@H](CCC(=O)O)C(=O)N1CCC[C@H]1C(=O)N[C@H](C(=O)N(C)CC(=O)N[C@@H](CCC(N)=O)C(=O)N[C@@H](CCC(=O)O)C(=O)N[C@@H](CCCNC(=N)N)C(=O)N[C@@H](C)C(=O)N[C@@H](C)C(=O)O)[C@@H](C)CC)[C@@H](C)CC [PA-C9SarD10] (H-IALILEPI[Sar]QERAA-OH) |  | 100.52% | Yes | 
4 | CC[C@H](C)[C@H](N)C(=O)N[C@@H](C)C(=O)N[C@@H](CC(C)C)C(=O)N[C@H](C(=O)N[C@@H](CC(C)C)C(=O)N[C@@H](CCC(=O)O)C(=O)N1CCC[C@H]1C(=O)N[C@H](C(=O)N(C)CC(=O)N[C@@H](CS)C(=O)N[C@@H](CCC(N)=O)C(=O)N[C@@H](CCC(=O)O)C(=O)N[C@@H](CCCNC(=N)N)C(=O)N[C@@H](C)C(=O)N[C@@H](C)C(=O)O)[C@@H](C)CC)[C@@H](C)CC [PA-C9Sar] (H-IALILEPI[Sar]CQERAA-OH; N-terminus and C-terminus assumed) | Yes | 5.63% |  | water soluble
5 | CC[C@H](C)[C@H](N)C(=O)N[C@@H](C)C(=O)N[C@@H](CC(C)C)C(=O)N[C@H](C(=O)N[C@@H](CC(C)C)C(=O)N[C@@H](CCC(=O)O)C(=O)N1CCC[C@H]1C(=O)N[C@H](C(=O)N[C@@H](CS)C(=O)N(C)CC(=O)N[C@@H](CCC(N)=O)C(=O)N[C@@H](CCC(=O)O)C(=O)N[C@@H](CCCNC(=N)N)C(=O)N[C@@H](C)C(=O)N[C@@H](C)C(=O)O)[C@@H](C)CC)[C@@H](C)CC [PA-C10Sar] | No | 56.18% |  | 
6 | CC[C@H](C)[C@H](N)C(=O)N[C@@H](C)C(=O)N[C@@H](CC(C)C)C(=O)N[C@H](C(=O)N[C@@H](CC(C)C)C(=O)N(C)CC(=O)N1CCC[C@H]1C(=O)N[C@H](C(=O)N[C@@H](CS)C(=O)N[C@@H](CS)C(=O)N[C@@H](CCC(N)=O)C(=O)N[C@@H](CCC(=O)O)C(=O)N[C@@H](CCCNC(=N)N)C(=O)N[C@@H](C)C(=O)N[C@@H](C)C(=O)NCCOCCOCCOCCOCCOCCOCCOCCOCCOCCOCCOCCOCCOCCOCCOCCOCCOCCOCCOCCOCCOCCOCCOCCOCCC(=O)O)[C@@H](C)CC)[C@@H](C)CC [PA-E6Sar-dPEG24] |  | 12.88% | Yes | 
7 | CC[C@H](C)[C@H](N)C(=O)N[C@@H](C)C(=O)N[C@@H](CC(C)C)C(=O)N[C@H](C(=O)N[C@@H](CC(C)C)C(=O)N(C)CC(=O)N1CCC[C@H]1C(=O)N[C@H](C(=O)N[C@@H](CS)C(=O)N[C@@H](CS)C(=O)N[C@@H](CCC(N)=O)C(=O)N[C@@H](CCC(=O)O)C(=O)N[C@@H](CCCNC(=N)N)C(=O)N[C@@H](C)C(=O)N[C@@H](C)C(=O)O)[C@@H](C)CC)[C@@H](C)CC [PA-E6Sar] | No | 5.19% |  | 
8 | CC[C@H](C)[C@H](NC(=O)[C@H](CC(C)C)NC(=O)[C@H](C)NC(=O)CNC)C(=O)N[C@@H](CC(C)C)C(=O)N[C@@H](CCC(=O)O)C(=O)N1CCC[C@H]1C(=O)N[C@H](C(=O)N[C@@H](CS)C(=O)N[C@@H](CS)C(=O)N[C@@H](CCC(N)=O)C(=O)N[C@@H](CCC(=O)O)C(=O)N[C@@H](CCCNC(=N)N)C(=O)N[C@@H](C)C(=O)N[C@@H](C)C(=O)O)[C@@H](C)CC [PA-I1Sar] | No | 84.49% |  | 
9 | CC[C@H](C)[C@H](N)C(=O)N[C@@H](C)C(=O)N[C@@H](CC(C)C)C(=O)N(C)CC(=O)N[C@@H](CC(C)C)C(=O)N[C@@H](CCC(=O)O)C(=O)N1CCC[C@H]1C(=O)N[C@H](C(=O)N[C@@H](CS)C(=O)N[C@@H](CS)C(=O)N[C@@H](CCC(N)=O)C(=O)N[C@@H](CCC(=O)O)C(=O)N[C@@H](CCCNC(=N)N)C(=O)N[C@@H](C)C(=O)N[C@@H](C)C(=O)O)[C@@H](C)CC [PA-I4Sar] (H-IAL[Sar]LEPICCQERAA-OH; N-terminus and C-terminus assumed) | Yes | 93.19% |  | 
10 | CC[C@H](C)[C@H](N)C(=O)N[C@@H](C)C(=O)N[C@@H](CC(C)C)C(=O)N[C@H](C(=O)N[C@@H](CC(C)C)C(=O)N[C@@H](CCC(=O)O)C(=O)N1CCC[C@H]1C(=O)N(C)CC(=O)N[C@@H](CS)C(=O)N[C@@H](CS)C(=O)N[C@@H](CCC(N)=O)C(=O)N[C@@H](CCC(=O)O)C(=O)N[C@@H](CCCNC(=N)N)C(=O)N[C@@H](C)C(=O)N[C@@H](C)C(=O)O)[C@@H](C)CC [PA-I8Sar, IALILEP(Sar)CCQERAA] | Yes | 33.92% |  | 
11 | CC[C@H](C)[C@H](N)C(=O)N[C@@H](C)C(=O)N(C)CC(=O)N[C@H](C(=O)N[C@@H](CC(C)C)C(=O)N[C@@H](CCC(=O)O)C(=O)N1CCC[C@H]1C(=O)N[C@H](C(=O)N[C@@H](CS)C(=O)N[C@@H](CS)C(=O)N[C@@H](CCC(N)=O)C(=O)N[C@@H](CCC(=O)O)C(=O)N[C@@H](CCCNC(=N)N)C(=O)N[C@@H](C)C(=O)N[C@@H](C)C(=O)O)[C@@H](C)CC)[C@@H](C)CC [PA-L3Sar] (H-IA[Sar]ILEPICCQERAA-OH; N-terminus and C-terminus assumed) | Yes | 87.36% |  | 
12 | CC[C@H](C)[C@H](N)C(=O)N[C@@H](C)C(=O)N[C@@H](CC(C)C)C(=O)N[C@H](C(=O)N(C)CC(=O)N[C@@H](CCC(=O)O)C(=O)N1CCC[C@H]1C(=O)N[C@H](C(=O)N[C@@H](CS)C(=O)N[C@@H](CS)C(=O)N[C@@H](CCC(N)=O)C(=O)N[C@@H](CCC(=O)O)C(=O)N[C@@H](CCCNC(=N)N)C(=O)N[C@@H](C)C(=O)N[C@@H](C)C(=O)O)[C@@H](C)CC)[C@@H](C)CC [PA-L5Sar] (H-IALI[Sar]EPICCQERAA-OH; N-terminus and C-terminus assumed) | Yes | 85.13% |  | 
13 | CC[C@H](C)[C@H](N)C(=O)N[C@@H](C)C(=O)N[C@@H](CC(C)C)C(=O)N[C@H](C(=O)N[C@@H](CC(C)C)C(=O)N[C@@H](CCC(=O)O)C(=O)N(C)CC(=O)N[C@H](C(=O)N(C)CC(=O)N[C@@H](CS)C(=O)N[C@@H](CCC(N)=O)C(=O)N[C@@H](CCC(=O)O)C(=O)N[C@@H](CCCNC(=N)N)C(=O)N[C@@H](C)C(=O)N[C@@H](C)C(=O)O)[C@@H](C)CC)[C@@H](C)CC [PA-P7SarC9Sar, IALILE(Sar)I(Sar)CQERAA] (H-IALILE[Sar]I[Sar]CQERAA-OH) |  | 82.72% | Yes | 
14 | CC[C@H](C)[C@H](N)C(=O)N[C@@H](C)C(=O)N[C@@H](CC(C)C)C(=O)N[C@H](C(=O)N[C@@H](CC(C)C)C(=O)N[C@@H](CCC(=O)O)C(=O)N(C)CC(=O)N[C@H](C(=O)N[C@@H](CS)C(=O)N[C@@H](CS)C(=O)N[C@@H](CCC(N)=O)C(=O)N[C@@H](CCC(=O)O)C(=O)N[C@@H](CCCNC(=N)N)C(=O)N[C@@H](C)C(=O)N[C@@H](C)C(=O)O)[C@@H](C)CC)[C@@H](C)CC [PA-P7Sar] (H-IALILE[Sar]ICCQERAA-OH; N-terminus and C-terminus assumed) | Yes | 3.01% |  | water soluble
15 | CC[C@H](C)[C@H](N)C(=O)N[C@@H](C)C(=O)N[C@@H](CC(C)C)C(=O)N[C@H](C(=O)N[C@@H](CC(C)C)C(=O)N[C@@H](CCC(=O)O)C(=O)N1CCC[C@H]1C(=O)N[C@H](C(=O)N[C@@H](CS)C(=O)N[C@@H](CS)C(=O)N(C)CC(=O)N[C@@H](CCC(=O)O)C(=O)N[C@@H](CCCNC(=N)N)C(=O)N[C@@H](C)C(=O)N[C@@H](C)C(=O)NCCOCCOCCOCCOCCOCCOCCOCCOCCOCCOCCOCCOCCOCCOCCOCCOCCOCCOCCOCCOCCOCCOCCOCCOCCC(=O)O)[C@@H](C)CC)[C@@H](C)CC [PA-Q11Sar-dPEG24] |  | 12.04% | Yes | 
